Like-named read-outs stand apart in the source and are kept apart here.
Columns and labels:
Format in all cases: cell-based
[1] = system: P. aeruginosa; test: MIC broth microdilution (CLSI); settings: Pseudomonas aeruginosa
Procedure, shortened: (§1)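 2-fold serially diluted compound in cation-adjusted MHB, inoculated at 5×10^5 CFU/mL from 0.5 McFarland suspensions. Incubation: 35° C., ambient air, 18-24 hours. Endpoint: no visible growth (OD 600 nm<0.05); assay controlled with CLSI quality-control strains and neomycin.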

[2] = system: C. freundii; test: MIC broth microdilution (CLSI); settings: Citrobacter freundii, read-out: Activity (MIC)
Procedure, shortened: as §1

[3] = system: K. pneumoniae; test: MIC broth microdilution (CLSI)
Procedure, shortened: as §1

[4] = system: E. coli; test: MIC broth microdilution (CLSI); settings: Escherichia coli
Procedure, shortened: as §1

[5] = system: P. mirabilis; test: MIC broth microdilution (CLSI); settings: Proteus mirabilis; strain APMI1048, MDR Clinical isolate (CDC CRE panel), CDC AR Bank 0159
Procedure, shortened: as §1

[6] = system: K. aerogenes; test: MIC broth microdilution (CLSI); settings: Klebsiella aerogenes; strain AEAE1042, MDR Clinical isolate (CDC CRE panel), CDC AR Bank 0161
Procedure, shortened: as §1

[7] = system: A. baumannii-calcoaceticus; test: Antibacterial surveillance of clinical isolates (MIC50/90); settings: 100 isolates
Method: (§2) Minimum inhibitory concentrations for representative example compounds herein were determined by a broth microdilution method in accordance with the Clinical and Laboratory Standards Institute (CLSI) guidelines. In brief, organism suspensions were adjusted to a 0.5 McFarland standard to yield a final inoculum between 3×10^5 and 7×10^5 colony-forming units (CFU)/mL. The inoculum was prepared by suspension of a colony from an agar plate that was prepared the previous day. Compound dilutions and inoculum were prepared in sterile, cation adjusted Mueller-Hinton Broth (Beckton Dickinson).
(§3) Bacteria were suspended in sterile saline and added to each assay plate to obtain a final concentration of 5×10^5 CFU/mL. An inoculum volume of 100 μL was added to wells containing 100 μL of broth with 2-fold serial dilutions of the test compound. All inoculated microdilution trays were incubated in ambient air at 35° C. for 18-24 hours. Following incubation, the lowest concentration of the compound that prevented visible growth (OD 600 nm<0.05) is recorded was the MIC. […] Performance of the assay was monitored by the use of laboratory quality-control strains and a standard compound with a defined MIC spectrum (neomycin), in accordance with CLSI guidelines.
(§4) Several compounds of the disclosure (Compound 1, 2, and 3) were further evaluated against several hundred bacterial isolates (isolated in the United States and Europe, 1:1) selected from the SENTRY Antimicrobial Surveillance Program (JMI Laboratories, North Liberty, Iowa). The set of clinical isolates included 300 randomly selected Enterobacterales, 103 randomly selected P. aeruginosa, 100 randomly selected A. baumannii-calcoaceticus, 20 randomly selected Methicillin-sensitive S. aureus (MSSA), and 30 randomly selected Methicillin-resistant S. aureus (MRSA). In addition, 101 Enterobacterales and 50 P. aeruginosa isolates with genetically defined mechanisms of aminoglycoside resistance were included. The MIC values at which ≥50% (MIC50) and ≥90% (MIC90) of isolates within a given set are inhibited were determined for each compound against each set of organisms.

[8] = system: P. aeruginosa; test: as above; settings: Pseudomonas aeruginosa, 103 isolates
Method: as §2, §3, §4

[9] = system: Methicillin-sensitive S. aureus (MSSA); test: as above; settings: Staphylococcus aureus, MSSA, 20 isolates
Method: as §2, §3, §4

[10] = system: AG-resistant Enterobacterales; test: as above
Method: as §2, §3, §4

[11] = system: AG-resistant P. aeruginosa; test: as above; settings: Pseudomonas aeruginosa, 50 isolates with defined aminoglycoside resistance
Method: as §2, §3, §4

[12] = system: Enterobacterales; test: as above
Method: as §2, §3, §4

[13] = system: Methicillin-resistant S. aureus (MRSA); test: as above; settings: Staphylococcus aureus, MRSA, 30 isolates
Method: as §2, §3, §4

[14] = system: clinical isolates of multi-drug resistant bacterial pathogens including A. baumannii, MRSA, P. aeruginosa, and CRE; test: MIC secondary panel, overall statement; settings: read-out: minimum inhibitory concentration (MIC) values
Method: as §2, §3
Several compounds of the disclosure (Compounds 1, 2, 3, and 6) were further evaluated against a secondary panel of clinical isolates of multi-drug resistant bacterial pathogens including A. baumannii, methicillin-resistant Staphylococcus aureus (MRSA), P. aeruginosa, and carbapenem-resistant Enterobacteriaceae (CRE).

[15] = system: all sets of organisms tested (SENTRY clinical isolates); test: Antibacterial surveillance, overall statement; settings: all sets of organisms tested (Table 3); read-out: MIC50,90 values
Method: as §2, §3
as §4, with “The MIC values at which ≥50% (MIC50) and ≥90% (MIC90) of isolates within a given set are inhibited were determined for each compound against each set of organisms.” left out

With `C[C@H](N)[C@@H]1CC[C@@H](N)[C@@H](O[C@@H]2[C@@H](N)[C@H](O)[C@@H](NC(=O)[C@@H](O)[C@H](F)CN)[C@H](O)[C@H]2O[C@@H]2O[C@H](CO)[C@@H](O[C@H]3O[C@@H](CN)[C@@H](O)[C@H](O)[C@H]3N)[C@H]2O)O1` [Compound 3, (2R,3R)-4-amino-N-((1R,2S,3S,4R,5R,6S)-3-amino-4-(((2R,3R,6S)-3-amino-6-((S)-1-aminoethyl)tetrahydro-2H-pyran-2-yl)oxy)-5-(((2S,3R,4S,5R)-4-(((2R,3R,4R,5S,6S)-3-amino-6-(aminomethyl)-4,5-dihydroxytetrahydro-2H-pyran-2-yl)oxy)-3-hydroxy-5-(hydroxymethyl)tetrahydrofuran-2-yl)oxy)-2,6-dihydroxycyclohexyl)-3-fluoro-2-hydroxybutanamide] the MIC ([1]; read-out: Activity (MIC), strain NPAE0006, Efflux KO, Aph(3')-IIb) was < 16 µg/mL, the MIC ([1]; read-out: Activity (MIC), strain NPAE0010, MexXY over-expressed, Aph(3')-IIb) was < 16 µg/mL and the MIC ([1]; read-out: Activity (MIC), strain NPAE1288, MDR Clinical isolate) was < 16 µg/mL. For the same molecule, the MIC ([1]; read-out: Activity (MIC), strain NPAE1293, MDR Clinical isolate) was < 16 µg/mL, the MIC ([1]; read-out: Activity (MIC), strain NPAE1299, MDR Clinical isolate) was < 16 µg/mL and the MIC ([1]; read-out: Activity (MIC), strain NPAE1302, MDR Clinical isolate) was < 16 µg/mL. For the same molecule, the MIC ([1]; read-out: Activity (MIC), strain NPAE1303, MDR Clinical isolate) was < 16 µg/mL, the MIC ([1]; read-out: Activity (MIC), strain NPAE1308, MDR Clinical isolate) was < 16 µg/mL and the MIC ([1]; read-out: Activity (MIC), strain NPAE1310, MDR Clinical isolate) was < 16 µg/mL. For the same molecule, the MIC ([1]; read-out: Activity (MIC), strain NPAE1313, MDR Clinical isolate) was > 16 µg/mL, the MIC ([1]; read-out: Activity (MIC), strain NPAE1316, MDR Clinical isolate) was < 16 µg/mL and the MIC ([1]; read-out: Activity (MIC), strain NPAE1323, MDR Clinical isolate) was < 16 µg/mL. For the same molecule, the MIC ([1]; strain NPAE0001, WT Aph(3')-IIb, QC, read-out: Activity (MIC)) was < 16 µg/mL, the MIC ([1]; strain NPAE0002, WT Aph(3')-IIb, read-out: Activity (MIC)) was < 16 µg/mL and the MIC ([1]; strain NPAE0359, aph(3')-IIb KO (tetR), read-out: Activity (MIC)) was < 16 µg/mL. For the same molecule, the MIC [2] was < 16 µg/mL, the MIC ([3]; Klebsiella pneumoniae, strain AKPN1246, MDR Clinical isolate (CDC CRE panel), CDC AR Bank 0139) was < 16 µg/mL and the “Activity (MIC)” value ([3]; strain AKPN1250, MDR Clinical isolate (CDC CRE panel), CDC AR Bank 0143) was “+ (MIC threshold for positive activity (+) is ≤16 μg/mL)”. The “Activity (MIC)” value ([3]; strain AKPN1253, MDR Clinical isolate (CDC CRE panel), CDC AR Bank 0148) was “+ (MIC threshold for positive activity (+) is ≤16 μg/mL)”, the “Activity (MIC)” value ([3]; strain AKPN1255, MDR Clinical isolate (CDC CRE panel), CDC AR Bank 0153) was “+ (MIC threshold for positive activity (+) is ≤16 μg/mL)” and the MIC ([4]; read-out: Activity (MIC), strain AECO1225, MDR Clinical isolate (CDC CRE panel), CDC AR Bank 0118) was < 16 µg/mL. For the same molecule, the MIC ([4]; read-out: Activity (MIC), strain AECO1226, MDR Clinical isolate (CDC CRE panel), CDC AR Bank 0119) was < 16 µg/mL, the MIC ([4]; read-out: Activity (MIC), strain AECO1227, MDR Clinical isolate (CDC CRE panel), CDC AR Bank 0128) was < 16 µg/mL and the MIC ([4]; read-out: Activity (MIC), strain NECO0003, ΔtolC) was < 16 µg/mL. For the same molecule, the MIC ([4]; read-out: Activity (MIC), strain NECO0245, ArmA) was < 16 µg/mL, the MIC ([4]; strain NECO0001, WT QC, read-out: Activity (MIC)) was < 16 µg/mL and the MIC ([4]; strain NECO0002, WT, read-out: Activity (MIC)) was < 16 µg/mL. For the same molecule, the MIC ([4]; strain NECO0243, empty vector, read-out: Activity (MIC)) was < 16 µg/mL, the MIC ([4]; strain NECO0244, AAC(6')-Ib, read-out: Activity (MIC)) was < 16 µg/mL and the MIC ([4]; strain NECO0289, APH(3')-Ia, read-out: Activity (MIC)) was < 16 µg/mL. The MIC ([4]; strain NECO0302, AAC(3)-IIa, read-out: Activity (MIC)) was < 16 µg/mL, the MIC ([4]; strain NECO0350, AAC(2')-I, read-out: Activity (MIC)) was < 16 µg/mL and the MIC ([4]; strain NECO0359, ANT(4')-Ia, read-out: Activity (MIC)) was < 16 µg/mL. For the same molecule, the MIC [5] was < 16 µg/mL, the MIC [6] was < 16 µg/mL and the MIC50 ([7]; read-out: MIC50) was < 16 µg/mL. The MIC90 ([7]; read-out: MIC90) was < 16 µg/mL, the MIC50 ([8]; read-out: MIC50) was < 16 µg/mL and the MIC90 ([8]; read-out: MIC90) was < 16 µg/mL. The MIC50 ([9]; read-out: MIC50) was < 16 µg/mL, the MIC90 ([9]; read-out: MIC90) was < 16 µg/mL and the MIC50 [10] was < 16 µg/mL. For the same molecule, the MIC90 [10] was < 16 µg/mL, the MIC50 ([11]; read-out: MIC50) was < 16 µg/mL and the MIC90 ([11]; read-out: MIC90) was < 16 µg/mL. The MIC50 [12] was < 16 µg/mL, the MIC90 [12] was < 16 µg/mL and the MIC50 ([13]; read-out: MIC50) was < 16 µg/mL. The MIC90 ([13]; read-out: MIC90) was < 16 µg/mL, the MIC [14] was ≤ 16 µg/mL and the MIC50 [15] was ≤ 16 µg/mL.
